Reference: patent US7105652B2, “Human tumor suppressor gene” (Garvan Institute of Medical Research, priority 1997, dated 2006)
Entries after “also recorded” stand apart in the source; their conditions may differ. Numbered stars: 1 amine (or outer) side, 2 acyl side, 3 side chain; on linkers, the order of the positions; unused ones are H or OH. Bridge positions count the residues as written; N and C are the ends. Square brackets hold non-standard residues; d marks the D form. Peptide text beside a SMILES is read from it. I, II: the chains in the order shown. Actinocin(9to1) = Cc1c2oc3c(C)ccc(C(=O)[*:1])c3nc-2c(C(=O)[*:2])c(N)c1=O; NMeV = CN[C@H](C(=O)O)C(C)C; Sar = CNCC(=O)O

How the values were obtained:
[1] = tested on: EDD mRNA; assay: Northern analysis of EDD mRNA in progestin-treated T-47D cells; assay type: cell-based, human
Protocol: (§1) The sources and maintenance of the human breast cancer and normal cell lines used were as described previously (12, 22), as were tissue culture experiments (12). Briefly, progestin (ORG 2058, 10 nM) and/or cycloheximide (20 μg/ml) or actinomycin D (5 μg/ml) was added to the medium and control flasks received the same volume of vehicle alone. To obtain RNA for differential display, cells were grown in insulin-supplemented serum-free medium and treated for 3 h with ORG 2058 or ethanol vehicle. Subsequent progestin stimulation experiments were carried out in medium containing 5% charcoal-stripped fetal calf serum without insulin.
Cells harvested from duplicate 150 cm^2 flasks were pooled, RNA extracted by a guanidinium-isothiocyanate-cesium chloride procedure and Northern analysis was performed as previously described with 20 μg of total RNA per lane (3, 23). The membranes were hybridized overnight (50° C.) with probes labelled with [a-^32P]dCTP (Amersham Australia Pty Ltd) using a Prime-a-Gene labelling kit (Promega Corp., Sydney, Australia). The membranes were washed at a highest stringency of 0.2 ¥ SSC (30 mM NaCl, 3 minN sodium citrate [pH 7.0])/1% sodium dodecyl sulfate at 65° C. and exposed to Kodak X-OMAT or BIOMAX film at −70° C. Human multiple tissue Northern blots or RNA Master blot (CLONTECH Laboratories Inc., Palo Alto, Calif.) were hybridized under conditions recommended by the manufacturer. The MRNA abundance was quantitated by densitometric analysis of autoradiographs using Molecular
Dynamics Densitometer and software (Molecular Dynamics, Sunnyvale, Calif.). The accuracy of loading was estimated by re-hybridizing membranes with a [g-^32P]ATP end-labelled oligonucleotide complementary to 18S rRNA (24, 25).

[2] = tested on: EDD; assay: Differential display RT-PCR of T-47D cells treated with ORG 2058; assay type: cell-based, human; conditions: ORG 2058 for 3 h
Protocol: as §1
Differential display was carried out as previously described (11) using a Heiroglyph mRNA Profile Kit No. 1 (Genomyx Corporation, Foster City, Calif.) and recommended protocol. First strand cDNA synthesis was carried out in 96-well format 0.2 ml thin walled tubes. Typically 200 ng total RNA from T-47D cells treated with the synthetic progestin ORG 2058 for 3 h or from control T-47D cells was reverse transcribed with Expand Reverse Transcriptase enzyme (Boehringer Mannheim Pty Ltd, Castle Hill, Australia) following annealing with 4 pmol anchored primer (5′[…]12AC (SEQ ID NO:6)). […] The PCR products were denatured and separated on a 4.5% denaturing polyacrylamide gel at 800 v for 16 h using the Genomyx Long Read Sequencing System reagents and apparatus. […]

[3] = tested on: T-47D cells; conditions: ORG 2058, same conditions, reference (3); cited from earlier work
[4] = target: T1, GST-ubiquitin fusion protein (Homo sapiens, UniProt P0CG47); assay: Ubiquitin-binding assay (thiol ester formation); assay type: biochemical; conditions: in vitro translated 35S-labelled protein, absence of DTT; abolished by 100 mM DTT
T1 construct: purified GST-ubiquitin fusion protein
Protocol: [^35S]-labelled in vitro translated truncated (˜100 kDa) or full length protein was tested for its ability to bind ubiquitin by incubating 5 μl translation reaction with or without 5 μg purified GST protein or GST-ubiquitin fusion protein for 10 min at 25° C. […] Reactions were terminated by incubating the mixtures in either SDS-sample buffer containing 100 mM DTT at 95° C. for 5 min or in SDS-sample buffer containing 4 M urea instead of DTT at 25° C. for 20 min. Samples were resolved by SDS-PAGE through 6% or 7% gels followed by drying and autoradiography.

C[C@@H]1C[C@@H]([C@H](O)CC2CC(=O)NC(=O)C2)C(=O)[C@@H](C)C1 [cycloheximide, Cycloheximide]
effect on ORG 2058 induction of EDD mRNA levels ([1]; 10 nM ORG 2058 with cycloheximide (20 μg/ml), 1 h): prevented

CCC1CC2C3CCC4=CC(=O)CCC4C3CCC2(C)C1C(=O)CO (stereo not drawn) [ORG 2058, 16a-ethyl-21-hydroxy-19-norpregn-4-en-3,20-dione]
maximal EDD mRNA levels above control ([1]; progestin (ORG 2058), observed at 6 h, transient): 3 to 4 fold | abundance of EDD DD-PCR product, treated versus control [2]: more abundant in treated samples than in control samples; also recorded: present at a higher level | time of increase in the S phase fraction [3]: 12 to 14 h

Cc1c2oc3c(C)ccc(C(=O)N[C@@H]4C(=O)N[C@H](C(C)C)C(=O)N5CCC[C@H]5C(=O)N(C)CC(=O)N(C)[C@@H](C(C)C)C(=O)O[C@@H]4C)c3nc-2c(C(=O)N[C@@H]2C(=O)N[C@H](C(C)C)C(=O)N3CCC[C@H]3C(=O)N(C)CC(=O)N(C)[C@@H](C(C)C)C(=O)O[C@@H]2C)c(N)c1=O [actinomycin D, Actinomycin D] (I: T[dV]P[Sar][NMeV] / II: T[dV]P[Sar][NMeV]; ester I:1-I:C, II:1-II:C; linker I:N-II:N via Actinocin(9to1))
effect on ORG 2058 induction of EDD mRNA levels ([1]; 10 nM ORG 2058 with actinomycin D (5 μg/ml), 3 h): blocked

B1: truncated EDD: 890 amino acid truncated EDD protein, aa 1910 to aa 2799, carboxyl terminus with HECT domain (protein)
chain: MMSARGDFLNYALSLMRSHNDEHSDVLPVLDVCSLKHVAYVFQALIYWIKAMNQQTTLDTPQLERKRTRELLELGIDNEDSEHENDDDTNQSATLNDKDDDSLPAETGQNHPFFRRSDSMTFLGCIPPNPFEVPLAEAIPLADQPHLLQPNARKEDLFGRPSQGLYSSSASSGKCLMEVTVDRNCLEVLPTKMSYAANLKNVMNMQNRQKKEGEEQPVLPEETESSKPGPSAHDLAAQLKSSLLAEIGLTESEGPPLTSFRPQCSFMGMVISHDMLLGRWRLSLELFGRVFMEDVGAEPGSILTELGGFEVKESKFRREMEKLRNQQSRDLSLEVDRDRDLLIQQTMRQLNNHFGRRCATTPMAVHRVKVTFKDEPGEGSGVARSFYTAIAQAFLSNEKLPNLECIQNANKGTHTSLMQRLRNRGERDREREREREMRRSSGLRAGSRRDRDRDFRRQLSIDTRPFRPASEGNPSDDPEPLPAHRQALGERLYPRVQAMQPAFASKITGMLLELSPAQLLLLLASEDSLRARVDEAMELIIAHGRENGADSILDLGLVDSSEKVQQENRKRHGSSRSVVDMDLDDTDDGDDNAPLFYQPGKRGFYTPRPGKNTEARLNCFRNIGRILGLCLLQNELCPITLNRHVIKVLLGRKVNWHDFAFFDPVMYESLRQLILASQSSDADAVFSAMDLAFAIDLCKEEGGGQVELIPNGVNIPVTPQNVYEYVRKYAEHRMLVVAEQPLHAMRKGLLDVLPKNSLEDLTAEDFRLLVNGCGEVNVQMLISFTSFNDESGENAEKLLQFKRWFWSIVEKMSMTERQDLVYFWTSSPSLPASEEGFQPMPSITIRPPDDQHLPTANTCISRLYVPLYSSKQILKQKLLLAIKTKNFGFV
formation of GST-ubiquitin / ubiquitin thioester conjugate [4]: an additional higher molecular mass protein band was observed
